These results are taken from ChEMBL document CHEMBL1141755, “Flavonoids from the stem of Eriophorum scheuchzeri” (J Nat Prod, 2005).

Each structure is given as a SMILES string. The source made the active and inactive calls. The rule behind the calls is not given here.

Assay [1] concerns Cladosporium cucumerinum. Nature of the assay: Antifungal activity against Cladosporium cucumerinum at 1 ug after 3 days by MTT assay. Type of assay: functional, organism-based.
Assay [2] has as its system Radical scavenging activity. Briefly: Antioxidant activity assessed as DPPH radical scavenging activity at 10 ug. Format: functional. In general terms: The DPPH test is a chemical assay of radical scavenging.
Assay [3] deals with Cladosporium cucumerinum. Briefly: Antifungal activity against Cladosporium cucumerinum at 10 ug after 3 days by MTT assay. Type of assay: functional, organism-based.
Assay [4] relates to Candida albicans. Nature of the assay: Antifungal activity against Candida albicans at 10 ug after 3 days by MTT assay. Type of assay: functional, organism-based. Background: Tetrazolium dyes change colour on reduction, which living cells bring about.
For assay [5], the system named is Candida albicans. Briefly: Antifungal activity against Candida albicans at 5 ug after 3 days by MTT assay. Type of assay: functional, organism-based.
Assay [6] relates to Cladosporium cucumerinum. Nature of the assay: Antifungal activity against Cladosporium cucumerinum at 5 ug after 3 days by MTT assay. Type of assay: functional, organism-based.
Assay [7] relates to Radical scavenging activity. Briefly: Antioxidant activity assessed as DPPH radical scavenging activity at 5 ug. Format: functional.
Assay [8] concerns Radical scavenging activity. Briefly: Antioxidant activity assessed as DPPH radical scavenging activity at 1 ug. Type of assay: functional.

For the compound `COc1cc(-c2cc(=O)c3c(O)cc(O)cc3o2)cc(OC)c1O`, the result in the assay on Cladosporium cucumerinum [1], with Cladosporium cucumerinum [3], in the assay on Candida albicans [4], in the assay on Candida albicans [5] and in the assay with Cladosporium cucumerinum [6] was inactive. The outcome in assay [2], in assay [7] and in assay [8] was Active.

Turning to `C=C(C)C(O)Cc1c(O)cc(O)c2c1OC(c1ccc(O)cc1)CC2=O` (centres undefined), the result in the assay on Cladosporium cucumerinum [1] was inactive. Besides, the result (in assay [2]; in the assay on Cladosporium cucumerinum [3]; with Candida albicans [4]; with Candida albicans [5]; with Cladosporium cucumerinum [6]; in assay [7]) was Active. For the same compound, the result in assay [8] was Active.

As for `COc1cc(O)c2c(=O)c(-c3ccc(O)c(C)c3O)coc2c1`, the result with Cladosporium cucumerinum [1] and in the assay on Cladosporium cucumerinum [6] was inactive. The result (in assay [2]; with Cladosporium cucumerinum [3]; in the assay with Candida albicans [4]; in the assay with Candida albicans [5]; in assay [7]; in assay [8]) was Active.

Take `CC1(C)C=Cc2c(cc(O)c3c(=O)c(-c4ccc(O)cc4O)coc23)O1`: the result (in the assay on Cladosporium cucumerinum [1]; in assay [2]; in the assay with Cladosporium cucumerinum [3]; with Candida albicans [4]; in the assay on Candida albicans [5]; with Cladosporium cucumerinum [6]) was Active. The outcome in assay [7] and in assay [8] was Active.

Take `CC1(C)C=Cc2c(cc3occ(-c4ccc(O)cc4O)c(=O)c3c2O)O1`: the outcome (in the assay with Cladosporium cucumerinum [1]; in assay [2]; with Cladosporium cucumerinum [3]; in the assay with Candida albicans [4]; in the assay on Candida albicans [5]; in the assay on Cladosporium cucumerinum [6]) was Active. The result in assay [7] and in assay [8] was Active.

`COc1cc(O)c2c(=O)c(-c3ccc(O)c(C)c3OC)coc2c1`: the result in the assay with Cladosporium cucumerinum [1], in the assay on Cladosporium cucumerinum [3] and in the assay on Cladosporium cucumerinum [6] was Active. Besides, the outcome (in assay [2]; in the assay with Candida albicans [4]; in the assay with Candida albicans [5]; in assay [7]; in assay [8]) was inactive.

Regarding `COc1cc(O)c2c(=O)c(-c3ccc(O)cc3O)coc2c1`, the outcome in the assay with Cladosporium cucumerinum [1], in the assay on Cladosporium cucumerinum [3] and in the assay on Cladosporium cucumerinum [6] was Active. Besides, the result (in assay [2]; in the assay on Candida albicans [4]; in the assay on Candida albicans [5]; in assay [7]; in assay [8]) was inactive.

Consider `COc1cc(O)c2c(=O)c(-c3ccc(O)cc3OC)coc2c1`, for which the result (with Cladosporium cucumerinum [1]; in the assay on Cladosporium cucumerinum [3]; with Candida albicans [4]; in the assay with Candida albicans [5]; in the assay with Cladosporium cucumerinum [6]; in assay [8]) was inactive. The result in assay [2] and in assay [7] was Active.
